Patent US9492460B2, “Carbazole compounds useful as bromodomain inhibitors” (Bristol-Myers Squibb Company, priority 2013, dated 2016)

These compounds were tested against T1, bromodomain BRD4 (44-168), BRD4 (333-460), and BRD4 (1-477 or 44-460) (Homo sapiens, UniProt O60885) (assay: Time Resolved Fluorescence Resonance Energy Transfer (TR-FRET) binding assay). Conditions: one of the FRET assays described.
T1 construct: BRD4(44-168), BRD4(333-460), BRD4(44-460), BRD4(1-477), O60885-1; fused on or other part: N-terminal BirA biotinylation motif, biotinylated; The TVMV-cleavable His6 tag is removed, except in some BRD4(44-460) runs detected with anti-His terbium cryptate

| SMILES | IC50 |
| --- | --- |
| Cc1ccc(Cn2c3ccc(C(=O)N4CC(C)OC(C)C4)cc3c3ccc(-c4c(C)noc4C)cc32)cc1 (centres unmarked) [Example 21] | < 500 nM |
| Cc1oncc1-c1cc(C(N)=O)c2c3cc(C(=O)N4CCOCC4)ccc3n(Cc3ccc(F)cc3)c2c1 [Example 123, 9-(4-fluorobenzyl)-2-(5-methylisoxazol-4-yl)-6-(morpholine-4-carbonyl)-9H-carbazole-4-carboxamide] | < 500 nM |
| Cc1noc(C)c1-c1ccc2c3cc(C(=O)N4CC(C)OC(C)C4)ccc3n(Cc3ccc(F)cc3)c2c1 (centres unmarked) [Example 18] | < 500 nM |
| Cc1noc(C)c1-c1cc(C#N)c2c3cc(C(=O)N4CC(F)C4)ccc3n(Cc3cccc(F)c3)c2c1 [Example 121, 2-(3,5-dimethyl-4-isoxazolyl)-6-((3-fluoro-1-azetidinyl)carbonyl)-9-(3-fluorobenzyl)-9H-carbazole-4-carbonitrile] | < 500 nM |
| Cc1noc(C)c1-c1ccc2c3cc(C(=O)N4CCOCC4)ccc3n(CC3CC3)c2c1 [Example 22, 9-(cyclopropylmethyl)-2-(3,5-dimethyl-4-isoxazolyl)-6-(4-morpholinylcarbonyl)-9H-carbazole] | < 500 nM |
| COCCn1c2ccc(C(=O)N3CC(C)OC(C)C3)cc2c2ccc(-c3c(C)noc3C)cc21 (centres unmarked) [Example 8] | < 500 nM |
| COc1cccc(Cn2c3ccc(C(=O)N4CC(C)OC(C)C4)cc3c3ccc(-c4c(C)noc4C)cc32)c1 (centres unmarked) [Example 14] | < 500 nM |
| CNC(=O)c1cc(-c2c(C)noc2C)cc2c1c1cc(N3CCCOC3=O)ccc1n2C(C)c1ccccc1 (centres unmarked) [Example 173, 2-(3,5-dimethyl-4-isoxazolyl)-N-methyl-6-(2-oxo-1,3-oxazinan-3-yl)-9-(1-phenylethyl)-9H-carbazole-4-carboxamide] | < 7500 nM |
| Cc1noc(C)c1-c1cc(C#N)c2c3ccc(C(C)(C)O)cc3n(Cc3ccccc3)c2c1 [Example 184, 9-benzyl-2-(3,5-dimethyl-4-isoxazolyl)-7-(1-hydroxy-1-methylethyl)-9H-carbazole-4-carbonitrile] | < 500 nM |
| CCNC(=O)c1cc(-c2c(C)noc2C)cc2[nH]c3ccc(N4CCCOC4=O)cc3c12 [Example 154, 2-(3,5-dimethyl-4-isoxazolyl)-N-ethyl-6-(2-oxo-1,3-oxazinan-3-yl)-9H-carbazole-4-carboxamide] | < 7500 nM |
| CNC(=O)c1cc(-c2c(C)noc2C)cc2c1c1cc(C(=O)N3CC(F)C3)ccc1n2C(C)c1ccc(F)cc1 (centres unmarked) [Example 112] | < 500 nM |
| Cc1noc(C)c1-c1cc(C(N)=O)c2c3cc(C(=O)N4C[C@@H](C)O[C@@H](C)C4)ccc3n(S(=O)(=O)c3ccccc3)c2c1 [Example 45, 2-(3,5-dimethylisoxazol-4-yl)-6-(cis-2,6-dimethylmorpholine-4-carbonyl)-9-(phenylsulfonyl)-9H-carbazole-4-carboxamide] | < 7500 nM |
| Cc1noc(C)c1-c1cc(C(N)=O)c2c3cc(C(=O)N4CCCC4)ccc3n(Cc3ccccc3)c2c1 [Example 66] | < 50 nM |
| Cc1noc(C)c1-c1cc(C(N)=O)c2c3cc(C(=O)N4CC(F)C4)ccc3n(CC3CC3)c2c1 [Example 92] | < 50 nM |
| CON(C)C(=O)c1ccc2c3c(C(N)=O)cc(-c4c(C)noc4C)cc3n(Cc3ccccc3)c2c1 [Example 189, 9-Benzyl-7-(3,5-dimethyl-4-isoxazolyl)-N˜2˜-methoxy-N˜2˜-methyl-9H-carbazole-2,5-dicarboxamide] | < 50 nM |

More lines, now with the values ahead:

| IC50 | SMILES |
| --- | --- |
| < 50 nM | Cc1noc(C)c1-c1cc(C(N)=O)c2c3cc(C(=O)N4CC(F)C4)ccc3n(C(C)c3ccccc3C(F)(F)F)c2c1 (centres unmarked) [Example 89] |
| < 50 nM | Cc1noc(C)c1-c1cc(C(N)=O)c2c3ccc(C(C)(C)O)c(F)c3n(C(c3ccccc3)C3CCC(F)(F)CC3)c2c1 (single isomer, unassigned) [Example 226, 9-[(4,4-difluorocyclohexyl)(phenyl)methyl]-2-(dimethyl-1,2-oxazol-4-yl)-8-fluoro-7-(2-hydroxypropan-2-yl)-9H-carbazole-4-carboxamide] |
| < 50 nM | Cc1noc(C)c1-c1cc(C(N)=O)c2c3cc(C(=O)N4CC(F)(F)C4)ccc3n(Cc3ccccc3)c2c1 [Example 78] |
| < 50 nM | CNC(=O)c1cc(-c2c(C)noc2C)cc2c1c1cc(N3CCCOC3=O)ccc1n2Cc1ccccc1 [Example 169, 9-benzyl-2-(3,5-dimethyl-4-isoxazolyl)-N-methyl-6-(2-oxo-1,3-oxazinan-3-yl)-9H-carbazole-4-carboxamide] |
| < 50 nM | Cc1noc(C)c1-c1cc(C(N)=O)c2c3cc(NCCF)ccc3n(Cc3ccccc3)c2c1 [Example 136, 9-benzyl-2-(3,5-dimethyl-4-isoxazolyl)-6-(2-fluoroethylamino)-9H-carbazole-4-carboxamide] |
| < 50 nM | CNC(=O)c1cc(-c2c(C)noc2C)cc2c1c1cc(NC)ccc1n2Cc1ccccc1 [Example 133, 9-benzyl-2-(3,5-dimethyl-4-isoxazolyl)-N-methyl-6-(methylamino)-9H-carbazole-4-carboxamide] |
| < 50 nM | Cc1noc(C)c1-c1cc(C(N)=O)c2c3cc(NCCO)ccc3n(Cc3ccccc3)c2c1 [Example 137, 9-benzyl-2-(3,5-dimethyl-4-isoxazolyl)-6-((2-hydroxyethyl)amino)-9H-carbazole-4-carboxamide] |
| < 50 nM | CC(=O)Nc1ccc2c(c1)c1c(C(N)=O)cc(-c3c(C)noc3C)cc1n2Cc1ccccc1 [Example 142, 6-acetamido-9-benzyl-2-(3,5-dimethyl-4-isoxazolyl)-9H-carbazole-4-carboxamide] |
| < 50 nM | CNC(=O)c1cc(-c2c(C)noc2C)cc2c1c1cc(N3CCCOC3=O)ccc1n2Cc1ccc(F)cc1 [Example 171, 2-(3,5-dimethyl-4-isoxazolyl)-9-(4-fluorobenzyl)-N-methyl-6-(2-oxo-1,3-oxazinan-3-yl)-9H-carbazole-4-carboxamide] |
| < 50 nM | CNC(=O)c1cc(-c2c(C)noc2C)cc2c1c1cc(C(=O)N3CC(F)C3)ccc1n2Cc1cccc(F)c1F [Example 107] |
| < 50 nM | CCC1CCN(C(=O)c2ccc3c(c2)c2c(C(N)=O)cc(-c4c(C)noc4C)cc2n3Cc2ccccc2)CC1 [Example 50] |
| < 50 nM | Cc1noc(C)c1-c1cc(C(N)=O)c2c3cc(N4CCCS4(=O)=O)ccc3n(Cc3ccc(F)cc3)c2c1 [Example 174, 2-(3,5-dimethyl-4-isoxazolyl)-6-(1,1-dioxido-2-isothiazolidinyl)-9-(4-fluorobenzyl)-9H-carbazole-4-carboxamide] |
| < 50 nM | Cc1noc(C)c1-c1cc(C(N)=O)c2c3cc(C(=O)N4CC(C)OC(C)C4)ccc3n(Cc3ccc(F)cc3)c2c1 (centres unmarked) [Example 32] |
| < 50 nM | Cc1noc(C)c1-c1cc(C(N)=O)c2c3ccc(C(C)(C)O)cc3n(C(c3ccccc3)C3CCOCC3)c2c1 (single isomer, unassigned) [Example 199] |
| < 50 nM | Cc1noc(C)c1-c1cc(C(N)=O)c2c3ccc(C(=O)N(C)C)cc3n(C(c3ccccc3)c3ccccc3)c2c1 [Example 195, 7-(3,5-Dimethyl-4-isoxazolyl)-9-(diphenylmethyl)-N˜2˜,N˜2˜-dimethyl-9H-carbazole-2,5-dicarboxamide] |
| < 50 nM | Cc1noc(C)c1-c1cc(C(N)=O)c2c3cc(C(=O)N4CC(C)OC(C)C4)ccc3n(Cc3cccc(C#N)c3)c2c1 (centres unmarked) [Example 44] |
| < 50 nM | Cc1noc(C)c1-c1cc(C(N)=O)c2c3cc(C(=O)N4CC(C)OC(C)C4)ccc3n(Cc3cc(F)ccc3F)c2c1 (centres unmarked) [Example 42] |
